Assay results as given in US20230149508A1, “COMPOSITIONS AND METHODS FOR TREATING COMPLICATIONS OF VIRAL INFECTIONS AND OTHER RESPIRATORY DISORDERS” (priority 2020, published 2023).
Entries after “also recorded” stand apart in the source; their conditions may differ. Peptide text beside a SMILES is read from it. * marks the point of attachment. Biotin = O=C1N[C@H]2[C@H](CS[C@H]2CCCCC(=O)*)N1; Ahx = NCCCCCC(=O)O

Assays:
[1] = tested on: C57BL/6 mice intranasally challenged with a lethal dose of lipopolysaccharide (LPS); assay: Lethal LPS-induced lung injury (ARDS) mouse model, survival; type: in vivo; details: p<0.01 vs LPS, n=10/group
Experimental: C57BL/6 mice were pretreated with either 1000 uM aCT1, 1000 uM scrambled aCT1, or vehicle control prior to inoculation with a lethal dose (35 mg/kg/mouse) of LPS. A further group was treated with aCT1 6 hrs post inoculation of LPS. n=10/group (p<0.01 LPS vs LPS pre-aCT1, p<0.01 LPS vs LPS post aCT1).
Studies were undertaken to assess whether delivery of aCT1 to the respiratory tract in animal models of ARDS would reduce epithelial and endothelial breakdown, thereby preserving the air-liquid barrier while preventing fluid accumulation and reducing immune cell infiltration, resulting in the amelioration of ARDS pathology and preserving lung function to improve survival. Using a well characterized mouse model of ARDS, we investigated whether aCT1 applied directly to the lungs could inhibit severe endotoxin induced lung injury. C57BL/6 mice were intranasally challenged with a lethal dose of lipopolysaccharide (LPS) and were treated with aCT1 immediately prior to LPS administration, or 6 h post LPS exposure (FIG. 2).

[2] = tested on: normal human bronchial epithelial cells (NHBE); assay: Trans-epithelial resistance (TER) of NHBE monolayers after H2O2 exposure; type: cell-based; details: aCT1 pre-treatment, exposure to 100 mM H2O2; n=3
Experimental: (n=3, compared to H2O2 *:p<0.05, **:p<0.01, ***:p<0.0001)
(§1) To determine if aCT1 treatment preserves junctional integrity in human lung cells, human bronchial epithelial cells (NHBEs) were grown as confluent monolayers on Transwell inserts and trans-epithelial resistance (TER) recorded. TER readings measure electrical resistance across a cell monolayer and provide a quantitative metric of intercellular junction integrity.

[3] = tested on: Human lung microvascular endothelial cells (HLMEC); assay: TER of HLMEC after LPS exposure; type: cell-based; details: n=3, p<0.0001 vs LPS
Experimental: Human lung microvascular endothelial cells (HLMEC) were exposed to 10 μg LPS. Cells were treated with aCT1 prior to exposure or 24 hrs post LPS insult, scrambled control, or sham control. […] (n=3, compared to LPS ***:p<0.0001).
as §1

[4] = Intravenous (bolus) toxicity of aCT1 in rats; type: in vivo, rat; details: rat, in vivo
Experimental: (§2) Clinical signs were only observed at aCT1 administration levels that are well above the therapeutic range of efficacy, following intravenous administration of aCT1 at ≥10 mg/kg (Maximum Tolerated Dose). The results of these studies uniformly support aCT1 tolerability when delivered locally and systemically via various routes.

[5] = tested on: rats; assay: Intravenous (bolus) toxicity of aCT1 in rats; type: in vivo, rat; details: intravenous bolus
Experimental: as §2

[6] = Description: (§3) Clinical trials have been undertaken to assess safety of topical delivery of aCT1.
[7] = tested on: human subjects; details: in vivo
Description: as §3

[8] = tested on: human subjects; details: local (topical) delivery, clinical trials; cited from earlier work

With `CC[C@H](C)[C@H](NC(=O)[C@H](CCC(=O)O)NC(=O)[C@H](CC(C)C)NC(=O)[C@H](CC(=O)O)NC(=O)[C@H](CC(=O)O)NC(=O)[C@@H]1CCCN1C(=O)[C@H](CCCNC(=N)N)NC(=O)[C@@H]1CCCN1C(=O)[C@H](CCCNC(=N)N)NC(=O)[C@H](CCCCN)NC(=O)[C@H](CCCCN)NC(=O)[C@H](Cc1c[nH]c2ccccc12)NC(=O)[C@@H]1CCCN1C(=O)[C@H](CCCCN)NC(=O)[C@H](CCCNC(=N)N)NC(=O)[C@H](CCCNC(=N)N)NC(=O)[C@H](CC(N)=O)NC(=O)[C@@H]1CCCN1C(=O)[C@H](Cc1ccccc1)NC(=O)[C@H](Cc1c[nH]c2ccccc12)NC(=O)[C@@H](NC(=O)[C@H](CCCCN)NC(=O)[C@@H]1CCCN1C(=O)[C@H](CCC(N)=O)NC(=O)[C@H](CCCNC(=N)N)NC(=O)CCCCCNC(=O)CCCC[C@@H]1SC[C@@H]2NC(=O)N[C@@H]21)[C@@H](C)CC)C(=O)O` [aCT1] ({Biotin-Ahx}-RQPKIWFPNRRKPWKKRPRPDDLEI-OH; N-terminus and C-terminus assumed) the “Survival / LPS-induced mortality” value ([1]; aCT1 treatment 6 hrs post LPS inoculation (35 mg/kg/mouse)) was “significant protection against LPS-induced mortality; also recorded: significantly improved survival”, the “Survival / LPS-induced mortality” value ([1]; intranasal 1000 uM aCT1 pre-treatment prior to lethal LPS (35 mg/kg/mouse)) was “significant protection against LPS-induced mortality; also recorded: significantly improved survival” and the “TER (epithelial barrier integrity)” value [2] was “significantly increased TER readings; also recorded: stabilized intercellular junctions”. The “TER (endothelial barrier integrity)” value ([3]; aCT1 pre-treatment prior to 10 μg LPS) was “significantly improved endothelial TER readings; also recorded: preserved barrier integrity”, the “TER (endothelial barrier integrity)” value ([3]; aCT1 treatment 24 hrs post LPS insult (10 μg LPS)) was “significantly improved endothelial TER readings; also recorded: preserved barrier integrity” and the MTD ([4]; intravenous administration, read-out: Dose at which clinical signs were observed (Maximum Tolerated Dose)) was at least 10 mg/kg. The NOAEL ([4]; intravenous bolus, read-out: no-observable-adverse-effect level (NOAEL)) was 5 mg/kg, the Tolerability [5] was “well tolerated” and the “Immunogenicity (anti-aCT1 antibodies)” value ([6]; any preclinical study or clinical trial) was “not immunogenic”. For the same compound, the half-life ([6]; human) was 15 to 20 min, the “Drug related adverse events” value [7] was “no drug related adverse events” and the “Systemic exposure (pharmacokinetic studies in clinical trials)” value [7] was “no systemic exposure”. The “Efficacy and safety in acute and chronic skin injuries” value [8] was “demonstrated the efficacy and safety”.
